From article PMC8375664 (Frontiers in Endocrinology, 2021)
Values belong to the compound of their own block, whether it stands above or below them. Bridge positions count the residues as written; N and C are the ends. Square brackets hold non-standard residues; d marks the D form. Peptide text beside a SMILES is read from it. d2Nal = N[C@H](Cc1ccc2ccccc2c1)C(=O)O

Tests used:
rat MC4R [1] = target: T1, rat MC4R (Rattus norvegicus, UniProt P70596); assay: Inhibition of agonist-induced cAMP production by rat MC4R in transfected COS-7 cells (antagonist mode)
T1 sequence (P70596 whole entry): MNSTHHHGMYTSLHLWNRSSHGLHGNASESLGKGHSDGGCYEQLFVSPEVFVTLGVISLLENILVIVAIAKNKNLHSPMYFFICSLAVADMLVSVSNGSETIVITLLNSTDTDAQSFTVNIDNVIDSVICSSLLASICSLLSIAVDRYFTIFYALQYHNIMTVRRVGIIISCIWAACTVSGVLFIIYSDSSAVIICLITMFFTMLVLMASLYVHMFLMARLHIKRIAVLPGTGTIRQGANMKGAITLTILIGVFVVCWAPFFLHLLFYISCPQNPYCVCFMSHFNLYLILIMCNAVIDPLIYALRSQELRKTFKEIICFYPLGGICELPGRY

human MC4R = human MC4R (Homo sapiens, UniProt P32245); assay: cAMP production by human MC4R in transfected COS-7 cells (agonist mode)
Sequence of human MC4R (P32245 whole entry): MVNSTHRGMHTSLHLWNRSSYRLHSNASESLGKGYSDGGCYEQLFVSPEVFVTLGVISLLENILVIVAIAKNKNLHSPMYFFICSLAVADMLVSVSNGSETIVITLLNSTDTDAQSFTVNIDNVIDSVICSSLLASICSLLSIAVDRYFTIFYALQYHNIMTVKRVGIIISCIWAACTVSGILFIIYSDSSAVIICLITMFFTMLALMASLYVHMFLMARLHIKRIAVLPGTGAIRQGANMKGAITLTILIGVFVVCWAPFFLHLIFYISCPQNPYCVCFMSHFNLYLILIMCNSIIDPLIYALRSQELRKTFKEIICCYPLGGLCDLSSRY

rat MC4R [2] = target: T1, rat MC4R; assay: cAMP production by rat MC4R in transfected COS-7 cells (agonist mode)
[3] = system: human gut specimens (duodenum, ileum and colon); settings: incubation of human gut specimens from duodenum; cited from earlier work
Excerpt: Glucagon-like peptide-1 (GLP-1) is a gastrointestinal hormone that is secreted from intestinal L-cells after meal intake. It acts to inhibit appetite and potentiate glucose-stimulated insulin secretion ([1]–[3]). These actions led to the development of GLP-1 based drugs, which have been used for more than a decade for type-2-diabetes treatment and recently also to induce weight loss. In parallel with the development and refinement of GLP-1 based drugs, research has been directed at uncovering the molecular mechanisms responsible for GLP-1 secretion, aiming to create a therapeutically relevant ...

[4] = system: isolated perfused rat distal small intestine; assay: GLP-1 secretion from isolated perfused rat distal small intestine
Method: Male Wistar rats (~250 g) and male C57BL/6JRj mice (~28 g, 11–12 weeks) were purchased from the Janvier Labs (Le Genest-Saint-Isle, France). Mice and rats were housed with ad libitum access to standard chow and water following a 12:12 h light:dark cycle and were acclimatized for a least a week before experiments. On the day of experiment, rats and mice were transferred to our perfusion facility and anesthetized with a subcutaneous injection of hypnorm/midazolam (rats) (0.3 ml/100 g body weight, per ml: 0.08 mg fentanyl, 2.5 mg fluanisone, 0.45 mg Methyl Parahydroxybenzoate, 0.05 mg Propyl Parahydroxybenzoate, Midazolam: 1.25 mg, Matrix Pharmaceuticals, Hellerup, Denmark) or with an intraperitoneal injection of Ketamine/Xylazine (0.1 ml/20 g) (90 mg/kg Ketamine, Ketaminol Vet, MSD Animal Health; 10 mg/kg Xylazine, Rompun Vet., Bayer Animal Health) respectively, to block the activity of pain sensing nerves and to induce surgical anesthesia. For distal perfusions, the rat or mouse was placed on a heated operating table (37°C), the abdominal cavity was opened by a mid-line incision and the large intestine was excised after tying off the supplying vasculature. Furthermore, the upper half of the small intestine was removed. In the rat, the lower half of the small intestine (~50 cm) was retained and perfused in situ after insertion of a catheter into the upper mesenteric artery, while perfusion effluent was collected through a catheter inserted in the portal vein. […]
(§1) Total GLP-1 concentrations in venous effluents were quantified using an in-house RIA (code: 89390) ([23]). […] Samples were assayed non-extracted and concentrations were calculated by a four-parameter interpolation to a standard curve containing synthetic GLP-1 7–36 amide (H-6795-GMP, Bachem, Bubendorf, Switzerland) ranging from 5 to 320 pmol/L. I^125-labeled GLP-1 7–36 amide (a gift from Novo Nordisk A/S, Bagssværd, Denmark) was used as tracer. […]

[5] = system: isolated perfused mouse small intestine, upper half; assay: GLP-1 secretion from isolated perfused mouse small intestine, upper half; settings: vascular administration at end of experiments
Method: (§2) Male Wistar rats (~250 g) and male C57BL/6JRj mice (~28 g, 11–12 weeks) were purchased from the Janvier Labs (Le Genest-Saint-Isle, France). Mice and rats were housed with ad libitum access to standard chow and water following a 12:12 h light:dark cycle and were acclimatized for a least a week before experiments. On the day of experiment, rats and mice were transferred to our perfusion facility and anesthetized with a subcutaneous injection of hypnorm/midazolam (rats) (0.3 ml/100 g body weight, per ml: 0.08 mg fentanyl, 2.5 mg fluanisone, 0.45 mg Methyl Parahydroxybenzoate, 0.05 mg Propyl Parahydroxybenzoate, Midazolam: 1.25 mg, Matrix Pharmaceuticals, Hellerup, Denmark) or with an intraperitoneal injection of Ketamine/Xylazine (0.1 ml/20 g) (90 mg/kg Ketamine, Ketaminol Vet, MSD Animal Health; 10 mg/kg Xylazine, Rompun Vet., Bayer Animal Health) respectively, to block the activity of pain sensing nerves and to induce surgical anesthesia. […]
as §1

[6] = system: isolated perfused distal mouse small intestine; assay: GLP-1 secretion from isolated perfused mouse small intestine, distal part; settings: vascular administration at end of experiment
Method: as §2, §1

IC50 (rat MC4R [1]): 0.00631 µM
EC50 (human MC4R): 0.035 µM
EC50 (rat MC4R [2]): 0.0158 µM
Emax (rat MC4R [2]; COS-7, read-out: Emax on rat MC4R relative to alpha-MSH Emax): ~40%
Compound: CC(=O)N[C@H]1CSSC[C@@H](C(=O)N2CCC[C@H]2C(=O)N2CCC[C@H]2C(=O)N[C@@H](CCCCN)C(=O)N[C@@H](CC(=O)O)C(N)=O)NC(=O)CNC(=O)[C@H](Cc2c[nH]c3ccccc23)NC(=O)[C@H](CCCNC(=N)N)NC(=O)[C@@H](Cc2ccc3ccccc3c2)NC(=O)[C@H](Cc2c[nH]cn2)NC(=O)[C@H](CCC(=O)O)NC1=O [HS014] (Ac-CEH[d2Nal]RWGCPPKD-NH2; disulfide 1-8)

Compound: CC(=O)N[C@@H](C)c1cc(Cl)ccc1C1CCN(C(=O)[C@@H]2CN(C(C)(C)C)C[C@H]2c2ccc(F)cc2F)CC1 [MK-0493]
effect on GLP-1 and PYY secretion [3]: increased

Compound: OC[C@H]1OC(O)[C@H](O)[C@@H](O)[C@@H]1O (stereo partly shown) [glucose]
total GLP-1 output during first luminal glucose stimulation, control experiment ([4]; luminal glucose 20% w/v, 15 min, baseline 1.8 ± 0.2 pmol, P <0.001, n = 6): 4.8 ± 0.34 pmol
total GLP-1 output during first luminal glucose stimulation, glucose + HS014 experiment (before HS014) ([4]; luminal glucose 20% w/v, 15 min, baseline 2.0 ± 0.5 pmol, P = 0.01, n = 6): 5.6 ± 1.0 pmol
fold increase of GLP-1 secretion by luminal glucose ([4]; luminal glucose infusion): 2–3 fold

Compound: bombesin
effect on GLP-1 output (positive control) [5]: robustly increased GLP-1 output
effect on GLP-1 output (positive control) [6]: robustly increased GLP-1 output
